Assay results reported in patent publication US11548894B2, “Benzamide or benzamine compounds useful as anticancer agents for the treatment of human cancers” (The Board of Regents of the University of Texas System, priority 2015, dated 2023).

Columns and labels:
Mut6 cells (TD-NSC) = test: luminescence-based Celltiter-Glo cell viability assay (ATP levels) on Mut6 tumor derived neuronal stem cells; set-up: species or system mouse
How it was run: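 Primary tumor-derived neural stem cells from pooled Mut6 (p53/Pten/Nf1 conditional knockout) GBM tumors, serum-free with defined growth factors. Compound exposure 96 h at 37° C., 5% oxygen; viability by CellTiter-Glo ATP luminescence with cell-free background wells, giving IC50 curves.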

Normal astrocytes = test: ATP viability of normal astrocytes treated with increasing concentrations; format: cell-based, mouse; settings: increasing concentrations (FIG. 7A)
Procedure: (§1) A luminescence-based Celltiter-Glo® assay was performed to measure cell viability, using ATP levels as the readout. In brief, opaque-walled multiwell plates with Mut6 cells in culture medium (25 μl per well, 384-well plates) were prepared. Control wells containing medium without cells were prepared to obtain a value for background luminescence. Test compounds were added to experimental wells, and incubated according to culture protocol. The plate and its contents were incubated at 37° C., 5% […] for 96 hours. An ATP standard curve was generated immediately prior to adding the CellTiter-Glo® Reagent. A volume of CellTiter-Glo® Reagent equal to the volume of cell culture medium present in each well (25 μl of reagent to 25 μl of medium containing cells for a 384-well plate) was added. The contents were mixed for 2 minutes on an orbital shaker to induce cell lysis. The plate was allowed to incubate at room temperature for 10 minutes to stabilize the luminescent signal and luminescence recorded. (e.g. GloMax®, Lumistar, SPECTROstar, PHERAstar FS).
(§2) Normal astrocytes, Mut6 cells and mouse embryonic fibroblasts were treated with increasing concentrations of compound 4C12. […] Normal astrocytes and MEFs were unaffected by compound 4C12.

[1] = test system: mouse embryonic fibroblasts (MEFs); test: ATP viability of mouse embryonic fibroblasts treated with increasing concentrations; format: cell-based; settings: increasing concentrations (FIG. 7A)
Procedure: as §1, §2

Mut6 cells [2] = test: cell-based wash-out time course with ATP assay at 96 hours (FIG. 8); set-up: species or system mouse
Procedure: FIGS. 8A-B comprising FIG. 8A and FIG. 8B show the identification of molecular changes between 6 hr and 24 hr time points. […] Cells were plated 48 hours before treatment with test compounds Compound 1, Compound 2 and 4C12, and a negative control. Cultures then were treated with the test compound. The media was removed and cells washed twice. Fresh media was added without compound. Data points were 6 hr, 22 hr, 33 hr, 51 hr, 71 hr and continuous. Molecular changes were identified between the 6 hr and 24 hr time points. An ATP assay was performed at 96 hours. On day 2, Cells treated with 4C12 were round-shaped. […] On day 4, 10-20% of the cells were apoptotic. By day 5, 80-90% of the cells were apoptotic.

[3] = test system: cholesterol biosynthesis pathway (Srebp2 target genes); test: microarray and mRNA levels of cholesterol synthesis genes in Mut6 cells; format: cell-based, mouse
Procedure: Microarray analysis was conducted to identify overrepresented pathways associated with treatment with compound 4C12 for 48 hr.
(§3) FIG. 12A is a bar graph showing cholesterol (pg/cell), and triglyceride (pg/cell) levels in Mut6 cells treated with compound 4C12 for 24 hours and 48 hours, versus a negative control (vehicle only). […] Mut6 cells were treated with compound 4C12 for 24 hours and then mRNA levels for Hydroxymethylglutaryl-CoA synthase(Hmgcs); 3-hydroxy-3-methylglutaryl-coenzyme A reductase (Hmgcr); acetoacetyl-CoA synthetase (AACS); Delta(24)-sterol reductase (Dhcr24); 7-dehydrocholesterol reductase (Dhcr7), Sterol C5-desaturase (Sc5d); Squalene synthase (SS); and farnesyl pyrophosphate (FPP) synthase (FPPS) were determined.
(§4) In FIG. 13(a)-(e) Mut6 cells were treated with compound 4C12 for 2, 9, 16, 24, and 48 hr, respectively, and their cholesterol gene profile compared to a DMSO control. […] (f) Western blot. Mut6 cells were treated with vehicle only (−) or with compound 4C12 (+) for 7 hr, 13 hr and 23 hr. Cells were collected, lysed in SDS buffer, subjected to SDS PAGE, and cell proteins transferred to a membrane by a standard protocol.

Mut6 cells [4] = test: cholesterol and triglyceride level (pg/cell) in treated cells; format: cell-based, mouse
Procedure: as §3
FIG. 17 compares cholesterol level (pg/cell) (Left) and triglyceride level (pg/cell) (Right) in Mut6 cells and in MEF cells treated with compound 4C12 for 24 hours and 48 hours to a negative control (vehicle).

SREBP2 = test: Western blot of SREBP proteins in Mut6 cells; format: cell-based, mouse; settings: 7 hr, 13 hr and 23 hr
Procedure: as §4

[5] = test system: Srebp2 target genes in MEFs; test: relative mRNA level of cholesterol biosynthesis pathway target genes in MEFs; format: cell-based, mouse; settings: vs dmso (FIG. 16)
Description: (§5) FIG. 16 is a bar graph of relative mRNA level for cholesterol biosynthesis pathway target genes Hmgcs, Hmgcr, FPPS, LDLR; and SREBP1c in mouse embryo fibroblasts (left) and astrocytes (right) treated with compound 4C12 or dmso (negative control).

[6] = test system: Srebp2 target genes in Astrocytes; test: relative mRNA level of cholesterol biosynthesis pathway target genes in astrocytes; format: cell-based, mouse; settings: vs dmso (FIG. 16)
Description: as §5

Srebp1 target genes = test: cholesterol gene profile in Mut6 cells, Srebp1 targets; format: cell-based, mouse; settings: Mut6 cells, 2, 9, 16, 24 and 48 hr vs DMSO
Procedure: as §4

[7] = Mut6 cells, 24 hours and 48 hours

CCN1CCCC1CNC(=O)c1ccc(Sc2ccc(F)cc2)c([N+](=O)[O-])c1 (stereo not drawn) [4C12, N-((1-ethylpyrrolidin-2-yl)methyl)-4-((4-fluorophenyl)thio)-3-nitrobenzamide]
EC50 (Mut6 cells (TD-NSC); Mus musculus, relative ATP activity versus concentration (FIG. 7A), read-out: ED50 against Mut6 cells): 50 nM
compound-induced cell-death with addition of cholesterol (Mut6 cells (TD-NSC); Mut6 cells (FIG. 15(b))): inhibits
sensitivity after knock-down of Insig1/Insig2 (Mut6 cells (TD-NSC); Mut6 cells (FIG. 15(c))): less sensitive
live cells (%) (Mut6 cells (TD-NSC); Mut6 tumor cells viable after 96 hours (FIG. 7C)): 50%
effect on viability of normal astrocytes (Normal astrocytes): unaffected
effect on viability of MEFs [1]: unaffected
cell shape (Mut6 cells [2]; day 2): round-shaped
cell cycle state (Mut6 cells [2]; day 3): arrested in G2
apoptotic cells (Mut6 cells [2]; day 4): 10-20%
apoptotic cells (Mut6 cells [2]; day 5): 80-90%
relative ATP activity versus time (Mut6 cells [2]; relative to the control (FIG. 8B)): reduced ATP activity as a function of time
effect on Srebp2 target genes ([3]; Mut6 cells, 2, 9, 16, 24 and 48 hr vs DMSO): inhibits Srebp2 target genes
relative mRNA of genes for cholesterol synthesis enzymes ([3]; Mut6 cells, 24 hours): down-regulated
overrepresented pathways by microarray ([3]; treatment for 48 hr): deregulates the cholesterol biosynthesis pathway
specificity of cholesterol decrease (Mut6 cells [4]; Mut6 cells vs MEF cells, 24 and 48 hours (FIG. 17)): specific to Mut6 tumor cells
cholesterol (pg/cell) (Mut6 cells [4]; [7]): decreases
triglyceride (pg/cell) (Mut6 cells [4]; [7]): increases
SREBP2 protein (Western blot) (SREBP2): effective to decrease SREBP2 protein
Srebp2 target genes mRNA in MEFs [5]: not decreased
Srebp2 target genes mRNA in Astrocytes [6]: not decreased
effect on Srebp1 target genes (Srebp1 target genes): not Srebp1 target genes
